Reference: patent US8138304B2, “Neural regeneration peptides and formulations thereof” (Neuren Pharmaceuticals Limited, priority 2005, dated 2012)
Where no end group is shown, it is not given here.

How the values were obtained:
[1] = test system: experimental autoimmune encephalomyelitis (EAE) induced by MOG; test: EAE model of multiple sclerosis, prophylactic treatment; type: in vivo, mice, strain C57Bl/6J; details: for average clinical score / incidence of disease / mortality: 14 days from day 5
[2] = Pyridoxine-induced peripheral neuropathy: weight loss; type: in vivo, Sprague Dawley rats; details: 4 μg/kg IP daily days 1 to 10
Protocol: (§1) Adult male Sprague Dawley P50 rats were divided into the vehicle (n=9) and NRP-treated (n=10) groups. The rats were killed with an overdose of sodium pentobarbiturate on the 24 day from the first administration of pyridoxine.
(§2) From day 1, all rats were injected intraperitoneally (IP), twice daily, with 350 mg/kg pyridoxine for 8 consecutive days. Pyridoxine (Sigma) solution for injections was made using the following proportions: 95 mg of pyridoxine and 41 mg sodium bicarbonate in 1 ml of water.
(§3) On days 1 to 10 the vehicle group (n=10) received one daily IP-injection of 24 mM sucrose and the rats in the NRP-treated group (n=10) received 4 μg/kg of NRP-5 segment GG analogue D4A (GRRAAPGRAGG-NH2; SEQ ID NO:2) diluted in 24 mM sucrose. Lyophilised NRP was stored in the presence of sucrose or alternatively in trehalose at room temperature. For every intraperitoneal (i.p.) injection, NRP-5 segment GG analogue D4A was reconstituted to 100 μM peptide concentration containing 0.5M sucrose/trehalose, further diluted with PBS to the actual working solution of 5 μg/ml NRP-5 segment GG analogue D4A (containing 24 mM sucrose). A rat with a body weight of 250 g was injected with 200 μl of the working solution.
Animals are weighed daily during the experimental timeframe of 24 days. According to the study protocol, animals showing weight loss of more than 15% body weight were immediately killed. One of the control animals was sacrificed on day 4 of the pyridoxine treatment (control n=9).

[3] = test system: peripheral neuropathy induced by pyridoxine; test: Pyridoxine-induced peripheral neuropathy: hind limb adduction test; type: in vivo, Sprague Dawley rats; details: end of the study
Protocol: as §1, §2
as §3, with “A rat with a body weight of 250 g was injected with 200 μl of the working solution.” left out
Overall motor movement impairment was analysed by assessing the ability of each rat to adduct (i.e. keep its limbs close to the body) its hind limbs. […] These were scored as “0”. Rats that drew their hind limbs back after a slight delay were scored as “1”. […]

[4] = test system: peripheral neuropathy induced by pyridoxine; test: Pyridoxine-induced peripheral neuropathy: precision beam walk test; type: in vivo, Sprague Dawley rats; details: for beam walk score: 7-step walk total score
Protocol: as §1, §2, §3
The precision beam walk test was used to assess the animals' precise coordinated movement on days 13, 17 and 24. Briefly, animals were habituated once daily for 7 days before start of pyridoxine treatment on a 1.5 m long beam (with two longitudinal stripes indicating the median of the beam). On day 0 (one day before pyridoxine/NRP treatment) a baseline of motor behaviour on the beam was videotaped. […] All scores were added for the 7-step walk to receive a total score for one tested animal at a given time point. If the tested rat could only stand on the beam but was unable to not walk it was given the score of 30, and if it was unable to stand on the beam, it was scored as 32.

[5] = test system: peripheral neuropathy induced by pyridoxine; test: Pyridoxine-induced peripheral neuropathy: motor impairment score; type: in vivo, Sprague Dawley rats
Protocol: as §1, §2
On days 1 to 10 the vehicle group (n=10) received one daily IP-injection of 24 mM sucrose and the rats in the NRP-treated group (n=10) received 4 μg/kg of NRP-5 segment GG analogue D4A (GRRAAPGRAGG-NH2; SEQ ID NO:2) diluted in 24 mM sucrose. Lyophilised NRP was stored in the presence of sucrose or alternatively in trehalose at room temperature. […]
Overall motor impairment was analysed by assessing the gait of each rat: 1) on a flat surface and 2) its ability to walk across a wooden beam. […]
If the animal walked with no difficulty whatsoever, it was scored as a “0.” If there appeared to be problems in its gait, it was placed on a raised wooden beam. […]

[6] = test system: cerebellar cells; test: Cerebellar microexplant proliferation assay (BrdU); type: cell-based, Wistar rat; details: p<0.01; SEQ ID NO: 1 at 1 pM, SEQ ID NO: 2 at 100 pM
Protocol: (§4) Laminated cerebellar cortices of the two hemispheres were explanted from a P3, P4, P7 or P8 Wistar rat, cut into small pieces in GBSS with 0.65% D(+)glucose solution, and triturated by a 0.4 mm gauge needle and subsequently pressed through a 125 μm pore size sieve. The obtained microexplants were centrifuged (60×g) 2 times for a medium exchange into serum-free BSA-supplemented START V-medium (Biochrom). Finally, the microexplants were reconstituted in 500 μl STARTV-medium. For culturing, 38 μl of the cell suspension was incubated for 1 hour on a poly-D-lysine-coated cover slip in a 35 mm Petri dish under an atmosphere comprising 5% CO2 in air and 100% humidity at 34° C. Subsequently, the injuring toxins (as described below), NRPs and 1 ml of STARTV-medium were added, and the cultures were evaluated after 2-3 days of culture.
Toxicological and drug administration experiments were designed such that 1/100 parts of toxin and neuroprotective drug were administered simultaneously to the freshly prepared cerebellar microexplants. Glutamate was prepared as a 50 mM stock solution in MilliQ water while 50 mM 3-nitropropionic acid was pH-adjusted (pH 6.8-7.2) in MilliQ water. The concentrations of the oxidative stress inducing toxin, 3-nitropropionic acid (3-NP), and the excitotoxin, glutamate, in the assay were 0.5 mM each. Lyophilized peptides were reconstituted in PBS or 100 μg/ml human transferrin as a 10 μM stock solution. Subsequently, serial dilutions were made. Cerebellar microexplants were cultivated for 48-72 hours at 34° C., 5% CO2 in air and 100% humidity before they were fixed by increasing amounts of paraformaldehyde (0.4%, 1.2%, 3% and 4%—each treatment 2-3 min).
Using the toxins described above, cerebellar explants were exposed for 24 hours, at the beginning of culturing to dilutions of NRP (survival assay) or NRP and 0.1 μM BrdU (proliferation assay). Subsequently, 80% of the medium was changed without addition of new toxins and NRPs. […]
For statistical analysis of proliferation BrdU-positive nuclei were counted. Statistical significance was measured by Student's t-test.

[7] = test system: experimental autoimmune encephalomyelitis (EAE) induced by MOG; test: EAE model of multiple sclerosis, therapeutic treatment; type: in vivo, mice, strain C57Bl/6J; details: score 0-6
[8] = test system: primary human trophoblasts; test: Trophoblast proliferation assay (BrdU incorporation); type: cell-based; details: EGF 0.8×10^−9 M; 24 hrs; BrdU
Protocol: Cell proliferation was determined by BrdU incorporation to examine the effects of NRP-5RG D6A on the proliferation of trophoblasts. EGF (0.8×10^−9 M) was used as a positive control, since studies have previously shown it plays a role in enhancing trophoblast proliferation (Maruo et al., 1992).
Initially cells were treated with NRP-5RG D6A (SEQ ID NO: 1), EGF and BrdU (0.05 μM) for 72 hrs. After the first 24 hrs, an 80% media change was carried out since BrdU is toxic over long incubation periods. Following 72 hrs of incubation, the reaction was stopped by fixation in 4% PFA. However, with this experimental design, most trophoblasts would form syncytia by the end of the 72 hrs, hindering accurate examination of the proliferative effect of NRP-5RG D6A on trophoblasts. […] This allowed analysis of proliferation of mononuclear trophoblasts.
Cell proliferation was evaluated over 24 hrs after seeding 1.3×10^5 cells/cm^2 in culture media (1% serum) treated with 0.05 μM BrdU, NRP-5RG D6A and EGF (FIG. 13).

[9] = test system: JAr cells; test: TNF-alpha-induced cytotoxicity in immortalized trophoblast cell line; type: cell-based, human; details: EGF 5 ng/ml
Protocol: Choriocarcinoma cells (Jeg-3, BeWo and Jar; ATCC) were cultured under similar conditions in DMEM/F-12 cell culture medium in 75 cm2 flasks with filter tops (Raylab). Cells were allowed to adhere and grow in an incubator equilibrated in 95%/5% air/CO2 to approximately 70% confluence, before being split every 2 to 3 days by addition of 2 ml of 1× concentrated trypsin-EDTA. After a centrifugation step for 5 min at 1100 rpm, cells were resuspended in 15 ml of fresh DMEM/F-12 in sterile tissue flasks and placed back in the incubator.
In this study, we plated 50,000 JAr cells per well. JAr cells are an immortalized line of cells derived from a human choriocarcinoma cells. Wells were pre-incubated with NRP-5RG D6A (SEQ ID NO: 1) at the concentrations indicated in FIG. 12, or epidermal growth factor (EGF; 5 ng/ml) for 2 hours. Subsequently, cells were exposed to the cultures for 48 hours to TNF-alpha (5 ng/ml) and interferon-gamma (5 ng/ml) to induce stress.

[10] = test system: cerebellar microexplants; test: Cerebellar microexplant survival assay (3-NP/glutamate injury); type: cell-based, Wistar rat; details: in this particular assay; concentration not given
Protocol: as §4
Toxicological and drug administration experiments were designed such that 1/100 parts of toxin and neuroprotective drug were administered simultaneously to the freshly prepared cerebellar microexplants. […]
For statistical analysis of survival, four fields (each field having an area of 0.65 mm^2) of each fixed cerebellar culture with the highest cell densities were chosen, and cells displaying neurite outgrowth were counted (survival assay).

[11] = 0.2 μg peptide/day (8.33 μg/kg) i.p.

Question: Which average clinical score [1, 11] does the source give for “SEPEARRAPGRKGGVVCASLAADW (listed as Mus musculus) [SEQ ID NO: 5, 24-mer NRP-7 SW]” here?
Answer: Its average clinical score is “less than 0.5”.

Question: What about the incidence of disease [1, 11] of the same substance?
Answer: The incidence of disease was 7 out of 9.

Question: What about the mortality [1, 11] of the same substance?
Answer: The mortality was “No animals died”.

Question: And the “clinical score compared to saline control” value ([1]; from day 12 onwards, 0.2 μg peptide/day i.p.)?
Answer: Its value is “significant attenuation in clinical score”.

Question: Which results are given for “GRRAAPGRAGG-NH2 (listed as Homo sapiens) [SEQ ID NO: 2, 11-mer analogue of NRP-5]”?
Answer: initial weight loss [2]: 3.7%; body weight versus vehicle-treated group ([2]; day 8 until day 21): significantly higher; body weight at the peak of weight loss ([2]; day 10): 96.3+1.2 % of day 1 weight; animals with no sign of hind limb adduction after manual manipulation [3]: 9 out of 10; hind limb adduction score ([3]; score 0-3, 4 μg/kg IP daily days 1 to 10): 0.10+0.31; rats that performed the 7-step walk ([4]; day 13): 6 out of 10; beam walk score ([4]; day 13): 23.50 ± 2.46; animals that could perform the walk ([4]; day 17): all but one; beam walk score ([4]; day 17): 21.70 ± 1.43; beam walk, difference between vehicle and NRP-treated group ([4]; day 24): no longer a significant difference; motor impairment score ([5]; day 13 (peak of disease), score 0-3, 4 μg/kg IP daily days 1 to 10): 0.60+0.52; motor impairment outcome ([5]; day 24): recovered; proliferation compared against injured cells without NRP [6]: highly proliferation-inducing

Question: For “GTPGRAEAGGQVSPCLAASCSQAYG (listed as Homo sapiens) [SEQ ID NO: 4, 25-mer NRP-4 GG]”, which incidence of disease ([1]; 1 ug peptide/day i.p.) is on record?
Answer: The incidence of disease was 8 out of 10.

Question: And the mortality ([1]; 1 ug peptide/day i.p.)?
Answer: Its mortality is 0.

Question: What about the average clinical score ([1]; day 27, 1 ug peptide/day i.p.) of the same substance?
Answer: Its average clinical score is 1.0.

Question: And the “disease profile compared to saline control” value ([1]; from 12 days onwards until day 27, 1 ug peptide/day i.p.)?
Answer: Its value is “significant attenuation of the disease profile”.

Question: What does the source list for “REGRRDAPGRAGG (listed as Homo sapiens) [SEQ ID NO: 3, 13-mer NRP-5 segment RG]”?
Answer: mean clinical score after treatment ([7]; 0.1 μg peptide/animal (4.16 μg/kg) i.p. daily for 14 days from peak of disease): 1.16; mean clinical score before treatment ([7]; peak of the disease (day 17 after MOG-immunization)): 2.61

Question: Which results are given for “EGF: epidermal growth factor; proliferation-inducing peptide used as internal/positive control [reference compound]”?
Answer: increase in trophoblast proliferation compared to control [8]: 116.7±44%; trophoblast proliferation in the absence of TNF-alpha injury [9]: stimulated trophoblast proliferation; rescue of JAr cells from TNF-alpha-induced cytotoxicity ([9]; 2 hours pre-incubation): weak effect

Question: With “IGF-1: Neuroprotectant named as comparator in the cerebellar microexplant assay [reference compound]” as the substance, how does the “rescue values, protection” value [10] read?
Answer: The value was “approximately 20%”.
